Source: paper PMC10283044, “Structure–Activity Relationship of Lower Chlorinated Biphenyls and Their Human-Relevant Metabolites for Astrocyte Toxicity” (Chemical Research in Toxicology, 2023)
pIC50: −log10 of the molar value. Structures can show the parent of a compound that is named as a salt. Where two headings read alike, the source gives them in different places.

Key:
C6 cells = assay: MTT cell viability assay in C6 cells; assay type: cell-based; details: 0.5 to 50 μM; for pIC50: Rattus norvegicus, C6 cell line, 24 h exposure; for toxicity (cell viability) in the tested concentration range: C6 cells, 24 h
Protocol: C6 cells (CCL-107, Lot No. 63821786) were purchased from the American Type Culture Collection (ATCC, Manassas, VA, U.S.A.). This cell line has been previously used as an in vitro astrocyte model for toxicity[22] and is morphologically and functionally similar to primary astrocyte cultures.[34] The C6 cells were grown and maintained at 37 °C under humidified conditions at 5% CO2 in DMEM/F12 medium supplemented with 10% FBS and 1% P/S. The cells were maintained at a seeding density of 1 × 10^6 cells in 100 mm tissue culture-treated dishes (Cat. No. 430167, Corning, Somerville, MA, U.S.A.). All the experiments for the current study utilizing C6 cells have been performed within passage 2 and passage 20.
(§1) All the LC-PCB exposures or their corresponding human-relevant metabolite exposures were performed in serum-free, phenol-red-free cell culture media suited for the respective cell type described above. The exposures were within a concentration range of 0.5–50 μM for 24 h at 37 °C under humidified conditions at 5% CO2. DMSO was used as a negative control. All stock solutions of the test compounds were prepared in DMSO. The final DMSO concentration was maintained at <0.5% for all the exposures. After the 24 h incubation, either an MTT assay for cell viability or an LDH assay for cytotoxicity was employed.
(§2) C6 or primary cells were seeded in 24-well cell culture plates (Corning Inc., Corning, NY, U.S.A; Cat No. 3526) and allowed to grow until 80–90% confluent. The cells were then exposed to test compounds, as described above (0, 0.5, 1, 5, 10, 20, and 50 μM). The MTT assay was performed, as described[38] with modifications. After 24 h of exposure, the media was removed, and cells were washed with HBSS once. Two hundred microliters of 0.5 mg/mL MTT solution prepared in HBSS/Glucose (Glucose used at 1 mg/mL HBSS) was added to each well of the 24-well plate. The cells were incubated with the MTT solution for 45 min to 1 h at 37 °C under humidified conditions at 5% CO2. After incubation, the MTT solution was removed, and the water-insoluble purple formazan product was dissolved in 400 μL DMSO. This DMSO solution was added to a clear, flat bottom 96-well polystyrene plate (Cat. No. 12-565-501, Thermo Fisher Scientific, Waltham, MA. U.S.A.) in duplicate and read at 570 and 650 nm using a microplate reader (SpectraMax 190, Molecular Devices, San Jose, CA. U.S.A.). The mean percent cell viability was calculated as follows: [drawing 1]

[1] = MTT cell viability assay in mouse primary glial cells; assay type: cell-based, C57BL/6 mouse; details: mouse, primary mixed glial cells, MTT, primary glial cells from C57BL/6 mice
Protocol: (§3) Primary glial cell cultures obtained from PND1-3 C57BL/6 mice pups were provided by Dr. Tjalkens at Colorado State University, Fort Collins, CO, U.S.A. The primary astroglial cell cultures were grown and maintained, as described previously in MEM medium supplemented with 10% FBS and 1% P/S.[37]
as §1, §2

rat primary astrocytes = assay: MTT cell viability assay in rat primary astrocytes; assay type: cell-based, Sprague-Dawley rat; details: 24 h
Text: Sprague-Dawley male and female rats were utilized to obtain cultures of sex-specific primary cortical cells. All animal experiments were approved by the Institutional Animal Care and Uses Committee (IACUC) at the University of Iowa. The rat pups were sex-segregated as males and females based on visual examination and later confirmed by the presence of a Y chromosome-specific gene Sry by PCR. The gene for beta-actin, Actb, was used as a control. The primer sequences used for PCR amplification were as described,[35] which yielded a 317-bp product for Sry and a 220-bp product for Actb. Both products were confirmed by gel electrophoresis on a 1% agarose gel after PCR amplification was completed. As previously described, with modifications, astrocytes were obtained from the cortex of PND2/3 rats.[36] Briefly, cortical sections were dissociated in minimal essential medium with Earle’s salts for suspension cultures (S-MEM; Life Technologies) with 1% penicillin/streptomycin and 1.5 U/mL dispase (Life Technologies) for 60 min, aliquoting and replacing dissociation media every 10 min, adding 8000 U/mL DNase I in water after the first digestion. The enzymatic digestion was stopped by adding a growth medium containing minimal essential medium with Earle’s salts (MEM; Life Technologies) with 1% P/S and 10% heat-inactivated horse serum. After digestion, cells were centrifuged for 10 min at 1000 × g at 4 °C, and the pellet was resuspended in a growth medium. Cells were assessed for count and viability and then plated at 10,000 viable cells/cm^2 in T75 flasks. Flasks were shaken after 24 h, and media was replaced to begin removing microglia and then repeated every 2–3 days. Flow cytometry utilizing GFAP and IBA1 antibodies was run at passage 2 to confirm the elimination of microglia from the primary astrocyte cultures. The rat primary astrocyte cultures were maintained in MEM with 1% P/S and 10% heat-inactivated horse serum at 37 °C under humidified conditions at 5% CO2. The detailed protocol for astrocyte isolation of sex segregated rat pups and further validation of purity of astrocyte cultures is published and can be accessed at: dx.doi.org/10.17504/protocols.io.e6nvwjry7lmk/v1.
as §1, §2

[2] = tested on: mouse primary mixed glial cells; assay: MTT cell viability assay in mouse primary glial cells; assay type: cell-based, C57BL/6 mouse; details: Glial cell; mouse primary mixed glial cells (about 80% astrocytes, 20% microglia), MTT assay, 24 h
Protocol: as §3, §1, §2

[3] = read-out: hydroxylated metabolite IC50
[4] = read-out: sulfated metabolite IC50
[5] = Astrocyte, sex segregated rat primary astrocytes, female, read-out: IC50 females
[6] = Astrocyte, sex segregated rat primary astrocytes, male, read-out: IC50 males

For `Oc1ccc(-c2ccc(Cl)cc2)cc1` [PCB 3 hydroxylated metabolite], the pIC50 (C6 cells; [3]) was 4.67.

`O=S(=O)(O)Oc1ccc(-c2ccc(Cl)cc2Cl)cc1Cl` [PCB 25 sulfated metabolite] showed a pIC50 (C6 cells; [4]) of under 4.30.

Work on `Clc1ccc(-c2ccc(Cl)cc2Cl)cc1` [PCB28, 2,4,4′-trichlorobiphenyl] yielded a pIC50 (C6 cells; read-out: parent compound IC50) of about 4.60.

For `O=S(=O)(O)Oc1ccc(-c2cccc(Cl)c2)cc1Cl` [PCB 11 sulfated metabolite], the pIC50 (C6 cells; [4]) was under 4.30.

In the case of `O=S(=O)(O)Oc1cc(Cl)c(-c2cc(Cl)ccc2Cl)cc1Cl` [4-OH-PCB52 sulfate], the viability at 24 h, 5 µM [1] was over 150%, the viability at 24 h, 10 μM ([1]; next higher concentration after 5 μM) was 20% and the pIC50 (rat primary astrocytes; [5]) was 5.16. The pIC50 (rat primary astrocytes; [6]) was 5.15, the “toxicity (cell viability) in the tested concentration range” value (“toxicity (cell viability)” for short) (C6 cells) was “reduced cell viability” and the pIC50 (C6 cells; [4]) was 5.08.

Work on `Oc1ccc(-c2cccc(Cl)c2)cc1Cl` [PCB 11 hydroxylated metabolite] yielded a pIC50 (C6 cells; [3]) of 4.89.

In the case of `Clc1ccc(Cl)c(-c2cc(Cl)ccc2Cl)c1` [PCB52, 2,2′,5,5′-tetrachlorobiphenyl], the pIC50 [2] was 5.01, the pIC50 (rat primary astrocytes; [5]) was 4.84 and the pIC50 (rat primary astrocytes; [6]) was 4.82. The pIC50 (rat primary astrocytes; mixed rat primary astrocyte cultures (>95% astrocytes), read-out: IC50) was 4.93 and the pIC50 (C6 cells; read-out: parent compound IC50) was 5.06.

`Oc1ccc(-c2ccc(Cl)cc2Cl)cc1Cl` [PCB 25 hydroxylated metabolite] showed a pIC50 (C6 cells; [3]) of 5.28.

Compound `Oc1cc(Cl)c(-c2cc(Cl)ccc2Cl)cc1Cl` [4-OH-PCB52] has a viability at 24 h, 1 µM ([1]; 1 μM) of 150%, a viability at 24 h, 5 µM [1] of about 0% and a pIC50 (rat primary astrocytes; [5]) of 5.36. It also gave a pIC50 (rat primary astrocytes; [6]) of 5.31 and a pIC50 (C6 cells; [3]) of 5.66.

For `Clc1cccc(-c2ccc(Cl)cc2Cl)c1` [PCB25, 2,3′,4-trichlorobiphenyl], the pIC50 (C6 cells; read-out: parent compound IC50) was 5.00.

With `Clc1cccc(-c2cccc(Cl)c2)c1` [PCB11, 3,3′-dichlorobiphenyl] the “toxicity (cell viability)” value (C6 cells) was “non-toxic” and the pIC50 (C6 cells; read-out: parent compound IC50) was under 4.30.

In the case of `O=S(=O)(O)Oc1ccc(-c2ccc(Cl)cc2)cc1` [PCB 3 sulfated metabolite], the pIC50 (C6 cells; [4]) was under 4.30.

With `Clc1ccc(-c2ccccc2)cc1` [PCB3, 4-chlorobiphenyl] the “toxicity (cell viability)” value (C6 cells) was “non-toxic” and the pIC50 (C6 cells; read-out: parent compound IC50) was under 4.30.
